The results in this text go back to patent US20250009692A1, “Micronutrient composition to prevent and reverse protein glycation during oxidative stress in human” (priority 2023, published 2025).

In data set [1] the test system is Microglial Cells (IMG) exposed to Hydrogen Peroxide. Nature of the data set: Cell Protection from Oxidative Stress (Alamar Blue viability). Particulars: IMG cells pretreated 24 hours, H2O2 1 hour, 24 hours recovery; FIG. 8. It is filed as cell-based, mice. The text has this:
Cell Lines: Rat Cardiomyoblasts (H9c2) were obtained from ATCC (Virginia, USA). […] Cells were maintained in Dulbecco's Modified Eagle's Medium (DMEM) from Thermofisher (MA, USA) supplemented with 10% Fetal Bovine Serum (FBS) from Thermofisher (MA, USA) and 1% Penicillin-Streptomycin (PS) from MilliporeSigma (MA, USA). Microglial Cells (IMG) were obtained from Kerafast (MA, USA). It is an immortalized microglial cell line isolated from the brains of adult mice. Cells were maintained in DMEM supplemented with 10% FBS and 1% PS.
Cell Protection from Oxidative Stress: IMG cells were grown to confluency and pretreated with test compounds for 24 hours at 37° C. Media was removed and cells were exposed to Hydrogen Peroxide for 1 hour at 37° C. After one hour, H2O2 was removed and cells were incubated in DMEM supplemented with 1% BSA for a further 24 hours at 37° C. to allow them to stabilize. Subsequently, cell viability was assessed using Alamar Blue Cell Viability Reagent from Thermofisher (MA, USA). Alamar Blue Reagent is an oxidized form of redox indicator that is blue in color. When incubated with viable cells, the reagent changes color from blue to red and can be measured by absorbance at 570 nm.
We tested protective effects of individual natural compounds and their combinations in microglial cells exposed to oxidative stress generated by hydrogen peroxide.

Data set [2] has as its system Succinate Dehydrogenase (SDH) subunit A. Nature of the data set: Mitobiogenesis In-Cell ELISA, SDH-A levels in H9c2 cells. Format: cell-based, Rat. Particulars: H9c2 cardiac muscle cells, 24 hours treatment; FIG. 6. In general terms: ELISA stands for enzyme-linked immunosorbent assay.
Description: (§1) Mitobiogenesis: MitoBiogenesis™ In-Cell ELISA Kit (Colorimetric) was purchased from Abcam (Cambridge, UK). H9c2 Cells were grown to confluency in 96 well plates and treated with test ingredients for 24 hours at 37° C. Media was removed and cells were washed with Phosphate Buffered Saline provided in the kit. The cells were then fixed and processed as per the protocol provided with the kit. This assay was used to quantify two mitochondrial proteins: subunit I of Complex IV (COX-I) and the 70 kDa subunit of Complex II (SDH-A). No treatment control was used to show relative protein levels in each case.
For data set [3], the system named is subunit I of Complex IV (COX-I). Nature of the data set: Mitobiogenesis In-Cell ELISA, COX-I levels in H9c2 cells. Format: cell-based, Rat. Particulars: H9c2 heart muscle cells, 24 hours treatment; FIG. 7.
Description: as §1

As to `CSCC[C@H](N)C(=O)O` [methionine, Methionine], the “survival of cells exposed to hydrogen peroxide (viable cells)” value (shortened to “survival of cells exposed”) in data set [1] is “about 50%”.

In the case of `CC(=O)C(=O)[O-].[Na+]` [sodium pyruvate, Sodium Pyruvate], in data set [2], the “increase of SDH levels compared to control” value is 54%.

On to `O=C([O-])CC(O)C(=O)[O-].[Mg+2]` (stereo not drawn) [magnesium malate, Magnesium Malate], for which the “survival of cells exposed” value in data set [1] is given as “about 50%”. For the same compound, in data set [2], the “increase of SDH levels compared to control” value is recorded as 86%.

In the case of `N[C@@H](CS)C(=O)O` [cysteine, L Cysteine], the “increase of Cox-1 levels compared to control” value in data set [3] was 41%.

As for Magnesium Citrate, the “survival of cells exposed” value in data set [1] is given as “about 50%”.
